Values joined by “and” are separate entries in the source; they are usually repeats but may differ in a detail not shown here. Identical values can stand only once.
Key:
[1] = target: T1, receptor interacting protein kinase 1 (GST-hRIPK1 (8-327)) (Homo sapiens, UniProt Q13546); assay: ADP-Glo luminescence assay, RIPK1 autophosphorylation; format: biochemical; conditions: 1.5 μg/mL GST-hRIPK1 (8-327), 50 μM ATP, 3 hours at room temperature
T1 construct: GST-hRIPK1 (8-327) enzyme was generated by Proteros GmbH by Baculovirus expression system
T1 sequence (Q13546 8-327): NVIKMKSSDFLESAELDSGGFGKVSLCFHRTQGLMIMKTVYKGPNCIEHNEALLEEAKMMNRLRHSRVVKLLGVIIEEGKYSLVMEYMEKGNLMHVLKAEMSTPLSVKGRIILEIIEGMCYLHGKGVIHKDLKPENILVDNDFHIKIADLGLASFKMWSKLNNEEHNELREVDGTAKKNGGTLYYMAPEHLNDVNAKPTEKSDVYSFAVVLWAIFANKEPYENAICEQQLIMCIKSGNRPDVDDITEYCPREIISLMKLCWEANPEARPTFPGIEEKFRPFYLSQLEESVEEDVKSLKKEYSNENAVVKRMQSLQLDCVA
Method: (§1) Compound potency at receptor interacting protein kinase 1 and selectivity at receptor interacting protein kinase 2 and receptor interacting protein kinase 3 was determined in autophosphorylation mode, using an ADP-Glo luminescence assay, which measures the conversion of ATP to ADP.
(§2) GST-hRIPK1 (8-327) enzyme was generated by Proteros GmbH by Baculovirus expression system. GST-hRIPK2 (1-299) and GST-hRIPK3 (1-518) enzymes were purchased from SignalChem. Test compounds were diluted in DMSO and 0.1 μL of solution was dispensed to each well of a 384-well white solid microplates. The assay buffer was 50 mM HEPES pH 7.5, 50 mM NaCl, 30 mM MgCl2. The buffer was supplemented with 0.02% CHAPS, 0.01% of Pluronic F127, 0.1 mg/mL BSA and 1 mM DTT. Only for receptor interacting protein kinase 1 5 mM MnCl2, was included in the assay buffer on the day of the experiment. The enzymatic reaction consisted of 1.5 μg/mL GST-hRIPK1 (8-327) and 50 μM ATP for receptor interacting protein kinase 1, 0.4 μg/mL GST-hRIPK2 (1-299) and 150 μM ATP, 0.4 μg/mL GST-hRIPK3 (1-518) and 15 μM ATP. 5 μL of enzyme and 5 μL of ATP were added to the plate at twice the final assay concentration and incubated at room temperature for 3 hours. Following this reaction, 10 μL of ADP-Glo reagent (Promega) was added to each well and incubated for 40 minutes at room temperature. This stops the kinase reaction and depletes any remaining ATP. 20 μL of ADP-Glo detection reagent was then added to each well and incubated at room temperature for at least 15 minutes. The detection reagent converts ADP to ATP and introduces luciferase and luciferin to detect ATP. The luminescence is then measured with the Envision (PerkinElmer) plate reader. Test compound inhibition was expressed as percent inhibition of internal assay controls. For concentration response curves, normalized data is fit and pIC50 determined using XL-fit (IDBS) for Excel. The pIC50 were averaged to determine a mean value, for a minimum of two independent experiments.
as §1, with “Certain compounds were tested in the following. Compound” for “Compound”, “assay (Berger S. B. et al. (2015) Cell Death Discovery, 1: 15009),” for “assay,”
GST-hRIPK1 (8-327) enzyme was generated by Proteros GmbH by Baculovirus expression system.
as §2, with “Test” for “GST-hRIPK1 (8-327) enzyme was generated by Proteros GmbH by Baculovirus expression system. GST-hRIPK2 (1-299) and GST-hRIPK3 (1-518) enzymes were purchased from SignalChem. Test”, “microplate.” for “microplates.”, “comprised” for “consisted of”, “1” for “1, 0.4 μg/mL GST-hRIPK2 (1-299) and 150 μM ATP, 0.4 μg/mL GST-hRIPK3 (1-518)”, “IC50” for “pIC50”, “experiments. […]” for “experiments.”

[2] = target: T1, receptor interacting protein kinase 1 (GST-hRIPK1 (8-327)); assay: Fluorescent Polarization Binding (FP Binding) assay; conditions: 10 nM GST-hRIPK1 (8-327), 5 nM fluorescent-labeled ligand, 30 min at RT
Summary of the method: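 Displacement of 5 nM fluorescent ligand from 10 nM GST-hRIPK1 (8-327), 30 min at room temperature in pH 7.5 HEPES buffer, 1% DMSO. Fluorescence polarization read (ex 531/em 595 nm); IC50 fitted from percent inhibition and averaged over at least two independent experiments.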

| IC50 [1] | IC50 [2] | melting point | SMILES |
| --- | --- | --- | --- |
| < 1000 nM | < 1000 nM |  | CC1(C(=O)N2OCC[C@H]2c2ccccc2)CCC1 [Compound 77, (3S)-2-(1-Methylcyclobutane-carbonyl)-3-phenyl-1,2-oxazolidine] |
| < 1000 nM | < 1000 nM |  | CC(C)C(=O)N1OCC[C@H]1c1ccccc1 [Compound 78, 2-Methyl-1-[(3S)-3-phenyl-1,2-oxazolidin-2-yl]propan-1-one] |
| < 1000 nM | < 1000 nM |  | N#CC1(C(=O)N2OCC[C@H]2c2ccccc2)CCC1 [Compound 79, 1-[(3S)-3-Phenyl-1,2-oxazolidine-2-carbonyl]cyclobutane-1-carbonitrile] |
| < 1000 nM | < 1000 nM |  | COC(C)(C)C(=O)N1OCC[C@H]1c1ccccc1 [Compound 80, 2-Methoxy-2-methyl-1-[(3S)-3-phenyl-1,2-oxazolidin-2-yl]propan-1-one] |

Continued, compound first:

| SMILES | IC50 [1] | IC50 [2] | melting point |
| --- | --- | --- | --- |
| CC(C)(C)C(=O)N1OCC[C@H]1c1ccccc1F [Compound 72] | < 1000 nM | < 1000 nM |  |
| CC(C)(C)C(=O)N1OCCC1c1cccnc1F (centres unmarked) [Compound 81, 1-(3-(2-fluoropyridin-3-yl)isoxazolidin-2-yl)-2,2-dimethylpropan-1-one] | < 1000 nM | < 1000 nM |  |
| CC(C)(C)C(=O)N1OCC[C@H]1c1ccc(C#N)cc1 [Compound 87, 4-[(3S)-2-(2,2-dimethylpropanoyl)-1,2-oxazolidin-3-yl]benzonitrile] | < 1000 nM | < 1000 nM |  |
| CC(C)(C(=O)N1OCC[C@H]1c1ccc(C#N)cc1)C(F)F [Compound 88, 4-[(3S)-2-(3,3-difluoro-2,2-dimethylpropanoyl)-1,2-oxazolidin-3-yl]benzonitrile] | < 1000 nM | < 1000 nM and 16 nM |  |
| CC(C)(C(=O)N1OCC[C@H]1c1ccc(F)cc1)C(F)F [Compound 101, 3,3-difluoro-1-[(3S)-3-(4-fluorophenyl)-1,2-oxazolidin-2-yl]-2,2-dimethylpropan-1-one] | < 1000 nM | < 1000 nM and 8 nM |  |
| CC(C)(C)C(=O)N1OCC[C@H]1c1cncc(C#N)c1 [Compound 108, 5-[(3S)-2-(2,2-dimethylpropanoyl)-1,2-oxazolidin-3-yl]pyridine-3-carbonitrile] | < 1000 nM | < 1000 nM |  |
| CC(C)(C(=O)N1OCC[C@H]1c1ccc(/C(N)=N/O)cc1)C(F)F [Compound 206, (Z)-4-[(3S)-2-(3,3-Difluoro-2,2-dimethylpropanoyl)-1,2-oxazolidin-3-yl]-N′-hydroxybenzene-1-carboximidamide] |  | 1000 to 10000 nM | 67.3 to 75.6 °C |
| CC(C)(C(=O)N1OCC[C@H]1c1ccc(-c2ncon2)cc1)C(F)F [Compound 207, 3,3-difluoro-2,2-dimethyl-1-[(3S)-3-[4-(1,2,4-oxadiazol-3-yl)phenyl]-1,2-oxazolidin-2-yl]propan-1-one] |  | < 1000 nM | 87.9 to 88.9 °C |
| CC(C)(C(=O)N1OCC[C@H]1c1ccc(-c2noc(C3CC3)n2)cc1)C(F)F [Compound 208, 1-[(3S)-3-[4-(5-cyclopropyl-1,2,4-oxadiazol-3-yl)phenyl]-1,2-oxazolidin-1-yl]-3,3-difluoro-2,2-dimethylpropan-1-one] |  | < 1000 nM | 92.1 to 95.6 °C |
